Reference: patent US8815844B2, “Mitochondrial activity inhibitors of cancer-initiating cells and use thereof” (Universite de Geneve, priority 2009, dated 2014)

Experiments:
FL1^+ cells = test: effect of exogenous lactate addition on FL1+ cells; format: cell-based, human; conditions: exogeneous lactate along 10 days
Protocol: A: Levels of metabolite (LAC: lactate, PYR: pyruvate, GLUC: glucose) for FL1^+ and FL1^0 cells; B & C: Effect of lactate addition (LAC) on FL1^+ cell morphology by phase contrast imaging (B) and on the percentage of FL1^0 cells (C). Non treated (NT); Scale bar: […]. D: Level of active Lactate Deshydrogenase (LD expressed in UI/L) in purified-FL1^+ and -FL1^0 cells.

[1] = test system: FL1^+ cells (glioma-initiating cells, gliomasphere cultures); test: in vitro recurrence assay (treatment then recovery), viable FL1+ cells by FACS; format: cell-based, human; conditions: for rating as anti-CSC agent: in vitro recurrence assay criteria; for number of viable FL1^+ cells: temsirolimus (1 μM elsewhere in the source), 5 μM cyclopamine, 5 μM DAPT; for killing of FL1^+ cells: 5 μM, exposure along 20 days; for killing of FL1^+ cell population by inhibition of mitochondrial complex: FIG. 6, 5 μM
From the text: In contrast to other methods, which preferentially use cancer cell lines and stem cell marker like CD133 as a read-out of stemness, the Applicants' technology relies on primary cell cultures derived from human specimen and on a simple and unbiased detection of CICs independently of the use of any marker. Thus Applicants took advantage of such methodology to design and develop an in vitro recurrence assay to screen and validate potential therapeutic agents for eradicating cancer stem cells in glioma. […] The novelties here reside on the read-out of stemness used for testing the efficiency of any drug and on the possibility to identify specific anti-CSC agent.
Basically, any agent or inhibitor would be considered as an efficient anti-CSC agent if it fulfils the following criteria:
• 1) a viability of GICs (FL1^+ cells) decreases for more than 50% during the exposure to said agent or inhibitor during a maximum of 20 days, • 2) a recovery of GICs (FL1^+ cells) is less than 0.2 fold during the recovery phase of a maximum of 20 days, and • 3) the viability of normal brain cells is sustainable and recoverable during and after the exposure to the said agent or inhibitor.
a) Providing a cancer stem cell sample;
b) Treating the cancer stem cell sample provided under (a) with an agent;
c) Incubating the treated stem cell sample in a stem cell culture medium for an incubation period without treatment;
d) Selecting the viable cell population from the stem cell sample incubated under step (c); […]

primary GBM-2 cells = test: in vivo tumorigenicity of cells pretreated in vitro with inhibitors; set-up: species or system mice; conditions: GBM-2 cells treated 10 days in vitro prior implantation; for histological analyses for tumours: 17 weeks post-implantation; for state of mice implanted with pretreated cells: up to 17 weeks post-implantation
From the text: Control mice had symptoms 4 weeks post-implantation and were sacrificed. […] Experiment was stopped 17 weeks post-implantation.

[2] = test system: primary glioma cells (FBS cultures)
Protocol: (§1) To test the specificity of such inhibitor towards CICs, normal brains cells and primary glioma cells (FBS cultures) were exposed to the above mentioned mitochondrial agents for 10 days.
(§2) For short term/dose response (48 hrs): Dissociated gliomasphere cells, adherent glioma and normal cells were plated at 10 cell/μl in DMEM-F12 Glutamax, BIT20% or B27 (1/50), Hepes 30 mM, Penicillin/streptomycin 1/1000, with reduced mitogens at 1 ng/ml or with reduced level of serum (2.5%).
(§3) For long term treatment/recovery assay (T10 and/or T20): Dissociated gliomasphere cells, adherent glioma and normal cells were plated at 2 cell/μl in DMEM-F12 Glutamax, Hepes 30 mM, BIT20% or B27 (1/50), Penicillin/streptomycin 1/1000, with reduced mitogens at 1 ng/ml or with reduced level of serum (2.5%).
(§4) For the recovery, cells were harvested, washed with PBS1x, and placed back into their standard media.

Protocol for normal brain cells: as §1, §2, §3, §4

In the case of `CC(O)C(=O)O` (centres unmarked) [lactate], the “effect on FL1^+ cell morphology” value (FL1^+ cells) is reported as “induce cell adhesion” and the “effect on cell phenotype (FL1^0 cells)” value (FL1^+ cells) is reported as “commits cells towards the FL1^0 phenotype”.
For `CC1=C2C[C@H]3[C@@H](CC=C4C[C@@H](O)CC[C@@]43C)[C@@H]2CC[C@]12O[C@@H]1C[C@H](C)CN[C@H]1[C@H]2C` [cyclopamine, Cyclopamine], the “rating as anti-CSC agent” value [1] was “inefficient”.
`C[C@H](NC(=O)Cc1cc(F)cc(F)c1)C(=O)N[C@H](C(=O)OC(C)(C)C)c1ccccc1` [DAPT, N—[N-(3,5-Difluorophenacetyl-L-alanyl)]-S-phenylglycine t-Butyl Ester] was tested, and the “rating as anti-CSC agent” value [1] was “inefficient” and the “number of viable FL1^+ cells” value [1] was “decrease of the number of viable FL1^+ cells”.
With `CN(C)CCCN1c2ccccc2CCc2ccc(Cl)cc21` [Anafranil, Clomipramine] the “histological analyses for tumours” value (primary GBM-2 cells) was “no visible tumours”, the “state of mice implanted with pretreated cells” value (primary GBM-2 cells) was “alive without symptoms” and the “killing of FL1^+ cells” value [1] was “kills all FL1^+ cell”.
In the case of Oligomycin A/B, the “effect on glioma cells” value ([2]; FIG. 6) is reported as “eradicate any kind of brain cells including normal and glioma ones”, the “viability of primary glioma cells” value ([2]; exposure for 10 days, FBS cultures) is reported as “sensitive” and the “killing of FL1^+ cells” value [1] is reported as “kills all FL1^+ cell”. For the same compound, the “killing of FL1^+ cell population by inhibition of mitochondrial complex” value [1] was “kills the FL1^+ cell population”.
In the case of `C#Cc1cccc(Nc2ncnc3cc(OCCOC)c(OCCOC)cc23)c1` [Erlotinib], the “time in which gliomasphere cultures recover from the treatment” value ([1]; all gliomasphere cultures, long term treatment, Erlotinib 5 μM) is reported as at most 10 days and the “GBM in which cell death is induced in more than 50% of FL1^+ cells” value ([1]; long term treatment, Erlotinib 5 μM) is reported as 2/6.
For `Cn1nnc2c(C(N)=O)ncn2c1=O` [temozolomide, Temozolomide], the viability at 25 µM ([1]; Homo sapiens, 480 h, temozolomide 25 μM, up to 20 days treatment, read-out: FL1^+ cells still viable after treatment) was over 30%.
In the case of `CCCCCC[C@H]1C(=O)O[C@H](C)[C@H](NC(=O)c2cccc(NC=O)c2O)C(=O)O[C@@H](C)[C@@H]1OC(=O)CC(C)C` [Antimycin A], the “effect on normal brain cells” value (normal brain cells; FIG. 6) is reported as “does not really affect the viability of normal brain cells” and the “viability of normal brain cells” value (normal brain cells; exposure for 10 days) is reported as “allows normal brain cells to survive”.
In the case of `CO[C@H]1C[C@@H]2CC[C@@H](C)[C@@](O)(O2)C(=O)C(=O)N2CCCC[C@H]2C(=O)O[C@H]([C@H](C)C[C@@H]2CC[C@@H](OC(=O)C(C)(CO)CO)[C@H](OC)C2)CC(=O)[C@H](C)/C=C(\C)[C@@H](O)[C@@H](OC)C(=O)[C@H](C)C[C@H](C)/C=C/C=C/C=C/1C` [temsirolimus, Temsirolimus], the “rating as anti-CSC agent” value [1] is reported as “inefficient” and the “number of viable FL1^+ cells” value [1] is reported as “decrease of the number of viable FL1^+ cells”.
`C=C(C)[C@H]1Cc2c(ccc3c2O[C@@H]2COc4cc(OC)c(OC)cc4[C@@H]2C3=O)O1` [Rotenone] was tested, and the “histological analyses for tumours” value (primary GBM-2 cells) was “no visible tumours”, the “state of mice implanted with pretreated cells” value (primary GBM-2 cells) was “alive without symptoms” and the “killing of FL1^+ cells” value [1] was “kills all FL1^+ cell”. For the same compound, the “killing of FL1^+ cell population by inhibition of mitochondrial complex” value [1] was “kills the FL1^+ cell population”.
